Patent publication US20120029177A1, “HETEROCYCLE-AMINO ACID DERIVATIVES FOR TARGETING CANCER TISSUE AND RADIOACTIVE OR NON-RADIOACTIVE LABELED COMPOUNDS THEREOF” (SNU R&DB FOUNDATION, priority 2009, published 2012)
One block for each molecule: values may come before it.

Test system: SNU-C4 xenografted nude mice
Experiment: Biodistribution study in SNU-C4 xenografted nude mice after intravenous injection
Assay type: in vivo, mouse
Details: for % ID/g Tumor: SNU-C4 tumor
Protocol: Human colon cancer cell line SNU-C4 was cultured in RPMI1640 media containing 10% fetal bovine serum and harvested using trypsin. The cells were washed using 10 mL PBS and centrifugation at 3,000 rpm. Each nude mouse was injected with 2×10^5 cells/0.1 mL on the right shoulder subcutaneously. On 13 days post-injection, each 10 μCi/0.1 mL of ^68Ga labeled agent was injected into the xenografted mice through the tail vein. The injected mice were sacrificed at 10 min, 30 min, 1 hr, and 2 hr, cancer, blood, muscle, heart, liver, spleen, stomach, intestine, and bone were obtained, weighed, and their radioactivities were counted. The results were expressed as percentages of injected dose per gram tissue (% ID/g).

[1] = 10 min after intravenous injection
[2] = 30 min after intravenous injection
[3] = 1 hr after intravenous injection
[4] = 2 hr after intravenous injection

- % ID/g Tumor [1]: 2.55 ± 0.81 % ID/g
- % ID/g Tumor [2]: 1.26 ± 0.23 % ID/g
- % ID/g Tumor [3]: 0.60 ± 0.06 % ID/g
- % ID/g Tumor [4]: 0.41 ± 0.09 % ID/g
- % ID/g Blood [1]: 7.52 ± 0.77 % ID/g
- % ID/g Blood [2]: 2.76 ± 0.41 % ID/g
- % ID/g Blood [3]: 0.90 ± 0.19 % ID/g
- % ID/g Blood [4]: 0.21 ± 0.01 % ID/g
- % ID/g Bone [1]: 1.86 ± 0.22 % ID/g
- % ID/g Bone [2]: 0.85 ± 0.11 % ID/g
- % ID/g Bone [3]: 0.33 ± 0.10 % ID/g
- % ID/g Bone [4]: 0.17 ± 0.17 % ID/g
- % ID/g Heart [1]: 2.04 ± 0.19 % ID/g
- % ID/g Heart [2]: 0.68 ± 0.09 % ID/g
- % ID/g Heart [3]: 0.23 ± 0.08 % ID/g
- % ID/g Heart [4]: 0.08 ± 0.05 % ID/g
- % ID/g Intestine [1]: 1.62 ± 0.11 % ID/g
- % ID/g Intestine [2]: 0.68 ± 0.08 % ID/g
- % ID/g Intestine [3]: 0.36 ± 0.05 % ID/g
- % ID/g Intestine [4]: 0.26 ± 0.08 % ID/g
- % ID/g Kidney [1]: 16.19 ± 1.83 % ID/g
- % ID/g Kidney [2]: 6.33 ± 0.95 % ID/g
- % ID/g Kidney [3]: 4.13 ± 1.13 % ID/g
- % ID/g Kidney [4]: 2.92 ± 0.97 % ID/g
- % ID/g Liver [1]: 1.30 ± 0.15 % ID/g
- % ID/g Liver [2]: 0.60 ± 0.08 % ID/g
- % ID/g Liver [3]: 0.32 ± 0.04 % ID/g
- % ID/g Liver [4]: 0.21 ± 0.03 % ID/g
- % ID/g Muscle [1]: 2.08 ± 0.11 % ID/g
- % ID/g Muscle [2]: 0.70 ± 0.12 % ID/g
- % ID/g Muscle [3]: 0.26 ± 0.12 % ID/g
- % ID/g Muscle [4]: 0.10 ± 0.04 % ID/g
- % ID/g Spleen [1]: 1.41 ± 0.08 % ID/g
- % ID/g Spleen [2]: 0.56 ± 0.07 % ID/g
- % ID/g Spleen [3]: 0.27 ± 0.06 % ID/g
- % ID/g Spleen [4]: 0.18 ± 0.06 % ID/g
- % ID/g Stomach [1]: 1.86 ± 0.39 % ID/g
- % ID/g Stomach [2]: 0.72 ± 0.15 % ID/g
- % ID/g Stomach [3]: 0.26 ± 0.06 % ID/g
- % ID/g Stomach [4]: 0.10 ± 0.03 % ID/g
Structure (SMILES): O=C([O-])CN1CCN(CC(=O)[O-])CCN(CC(=O)O)CCN(CC(=O)[O-])CC1.[68Ga+3] [^68Ga-DOTA, reference compound]

- % ID/g Tumor [1]: 2.69 ± 0.19 % ID/g
- % ID/g Tumor [2]: 1.28 ± 0.22 % ID/g
- % ID/g Tumor [3]: 0.59 ± 0.18 % ID/g
- % ID/g Tumor [4]: 0.43 ± 0.06 % ID/g
- % ID/g Blood [1]: 7.13 ± 0.77 % ID/g
- % ID/g Blood [2]: 2.55 ± 0.31 % ID/g
- % ID/g Blood [3]: 0.41 ± 0.24 % ID/g
- % ID/g Blood [4]: 0.07 ± 0.00 % ID/g
- % ID/g Bone [1]: 1.95 ± 0.06 % ID/g
- % ID/g Bone [2]: 0.65 ± 0.16 % ID/g
- % ID/g Bone [3]: 0.15 ± 0.09 % ID/g
- % ID/g Bone [4]: 0.06 ± 0.07 % ID/g
- % ID/g Heart [1]: 1.83 ± 0.16 % ID/g
- % ID/g Heart [2]: 0.59 ± 0.07 % ID/g
- % ID/g Heart [3]: 0.15 ± 0.10 % ID/g
- % ID/g Heart [4]: 0.07 ± 0.07 % ID/g
- % ID/g Intestine [1]: 1.52 ± 0.08 % ID/g
- % ID/g Intestine [2]: 0.84 ± 0.10 % ID/g
- % ID/g Intestine [3]: 0.33 ± 0.14 % ID/g
- % ID/g Intestine [4]: 0.47 ± 0.17 % ID/g
- % ID/g Kidney [1]: 11.61 ± 0.61 % ID/g
- % ID/g Kidney [2]: 7.44 ± 1.29 % ID/g
- % ID/g Kidney [3]: 3.56 ± 2.10 % ID/g
- % ID/g Kidney [4]: 2.73 ± 0.32 % ID/g
- % ID/g Liver [1]: 1.98 ± 0.19 % ID/g
- % ID/g Liver [2]: 1.44 ± 0.29 % ID/g
- % ID/g Liver [3]: 1.04 ± 0.35 % ID/g
- % ID/g Liver [4]: 1.21 ± 0.21 % ID/g
- % ID/g Muscle [1]: 1.68 ± 0.86 % ID/g
- % ID/g Muscle [2]: 0.77 ± 0.19 % ID/g
- % ID/g Muscle [3]: 0.20 ± 0.17 % ID/g
- % ID/g Muscle [4]: 0.04 ± 0.01 % ID/g
- % ID/g Spleen [1]: 1.41 ± 0.19 % ID/g
- % ID/g Spleen [2]: 0.62 ± 0.09 % ID/g
- % ID/g Spleen [3]: 0.22 ± 0.09 % ID/g
- % ID/g Spleen [4]: 0.19 ± 0.03 % ID/g
- % ID/g Stomach [1]: 2.13 ± 0.26 % ID/g
- % ID/g Stomach [2]: 0.76 ± 0.31 % ID/g
- % ID/g Stomach [3]: 0.20 ± 0.10 % ID/g
- % ID/g Stomach [4]: 0.11 ± 0.03 % ID/g
Structure (SMILES): O=C([O-])CN1CCN(CC(=O)[O-])CCN(CC(=O)[O-])CC1.[68Ga+3] [^68Ga-NOTA, reference compound]

- % ID/g Tumor [1]: 2.71 ± 0.51 % ID/g
- % ID/g Tumor [2]: 2.10 ± 0.23 % ID/g
- % ID/g Tumor [3]: 0.99 ± 0.10 % ID/g
- % ID/g Tumor [4]: 0.67 ± 0.12 % ID/g
- % ID/g Blood [1]: 7.82 ± 1.05 % ID/g
- % ID/g Blood [2]: 3.61 ± 0.74 % ID/g
- % ID/g Blood [3]: 1.12 ± 0.27 % ID/g
- % ID/g Blood [4]: 0.44 ± 0.06 % ID/g
- % ID/g Bone [1]: 2.56 ± 0.61 % ID/g
- % ID/g Bone [2]: 1.54 ± 0.53 % ID/g
- % ID/g Bone [3]: 0.72 ± 0.23 % ID/g
- % ID/g Bone [4]: 0.58 ± 0.19 % ID/g
- % ID/g Heart [1]: 2.33 ± 0.32 % ID/g
- % ID/g Heart [2]: 0.97 ± 0.20 % ID/g
- % ID/g Heart [3]: 0.37 ± 0.10 % ID/g
- % ID/g Heart [4]: 0.23 ± 0.03 % ID/g
- % ID/g Intestine [1]: 2.24 ± 0.36 % ID/g
- % ID/g Intestine [2]: 1.27 ± 0.25 % ID/g
- % ID/g Intestine [3]: 0.68 ± 0.11 % ID/g
- % ID/g Intestine [4]: 0.62 ± 0.07 % ID/g
- % ID/g Kidney [1]: 32.32 ± 21.63 % ID/g
- % ID/g Kidney [2]: 13.61 ± 3.98 % ID/g
- % ID/g Kidney [3]: 8.46 ± 2.11 % ID/g
- % ID/g Kidney [4]: 6.90 ± 1.10 % ID/g
- % ID/g Liver [1]: 2.91 ± 0.31 % ID/g
- % ID/g Liver [2]: 2.75 ± 0.49 % ID/g
- % ID/g Liver [3]: 2.31 ± 0.27 % ID/g
- % ID/g Liver [4]: 2.17 ± 0.20 % ID/g
- % ID/g Lung [1]: 6.96 ± 1.06 % ID/g
- % ID/g Lung [2]: 3.57 ± 0.80 % ID/g
- % ID/g Lung [3]: 1.32 ± 0.35 % ID/g
- % ID/g Lung [4]: 0.87 ± 0.25 % ID/g
- % ID/g Muscle [1]: 2.81 ± 0.82 % ID/g
- % ID/g Muscle [2]: 1.45 ± 0.42 % ID/g
- % ID/g Muscle [3]: 0.45 ± 0.17 % ID/g
- % ID/g Muscle [4]: 0.13 ± 0.07 % ID/g
- % ID/g Spleen [1]: 1.86 ± 0.24 % ID/g
- % ID/g Spleen [2]: 1.03 ± 0.22 % ID/g
- % ID/g Spleen [3]: 0.47 ± 0.10 % ID/g
- % ID/g Spleen [4]: 0.38 ± 0.08 % ID/g
- % ID/g Stomach [1]: 2.52 ± 0.46 % ID/g
- % ID/g Stomach [2]: 1.22 ± 0.32 % ID/g
- % ID/g Stomach [3]: 0.38 ± 0.05 % ID/g
- % ID/g Stomach [4]: 0.18 ± 0.03 % ID/g
Structure (SMILES): O=C([O-])CN1CCNCCN(CC(=O)[O-])CCNCC1.[68Ga+3] [^68Ga-DO2A, reference compound]
